Reference: US20100184815A1 (priority 2008, published 2010)

Columns and labels:
Gal-4 hPPARγ = target: T1, Gal-4 hPPARγ (Homo sapiens, UniProt P37231); test: Gal4-hPPARγ transient transfection reporter assay in Cos cells; type: cell-based; conditions: luciferase reporter, 24 hours with compound, scale 1-5, read-out: Gal-4 hPPAR γ EC50 (scaled number)
T1 construct: Plasmids pGal4-hPPARα, pGal4-hPPARγ, pGal4-hPPARδ and pG5-TK-pGL3 were constructed as previously described by Staels, Bart, et al., Nature 1998 Jun; 25
T1 sequence (P37231 238-505 limits assumed): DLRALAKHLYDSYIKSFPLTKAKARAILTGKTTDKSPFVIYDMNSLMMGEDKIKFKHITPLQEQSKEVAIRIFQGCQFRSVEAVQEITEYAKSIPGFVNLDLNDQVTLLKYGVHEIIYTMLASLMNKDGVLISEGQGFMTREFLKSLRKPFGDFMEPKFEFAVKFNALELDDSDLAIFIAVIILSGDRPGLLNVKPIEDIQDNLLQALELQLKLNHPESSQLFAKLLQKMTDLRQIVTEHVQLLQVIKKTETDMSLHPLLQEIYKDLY
Method in brief: (§1)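 Cos cells transiently co-transfected with Gal4-hPPAR expression plasmid, pG5-TK-pGL3 luciferase reporter and β-galactosidase control, then treated 24 h with increasing compound concentrations in DMEM containing 0.2% FCS. Luciferase normalised to β-galactosidase; EC50 from curve fit, at least three experiments.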

[1] = Metabolism studies using human liver microsomal preparations; type: in vitro ADME; conditions: for HLMs Predominant Enzyme: comparison of half life with and without NADPH: Esterase, CYP or Mixed; for half-life: pH 7.4, read-out: HLMs t1/2; for half-life / HLMs t1/2 (min): pooled human liver microsomes, with NADPH (CYP system active), 37° C.
Procedure: Compounds were incubated in pooled human liver microsomes (HLMs) in the presence or absence of an NADPH-generating system. NADPH is required for the activity of cytochrome P450 (CYP) and other oxidative enzymes present in HLMs, but not for esterase activity. An additional incubation was carried out in the absence of HLM to assess compound stability. The disappearance of parent and the appearance of the corresponding acid metabolite were monitored over the time course of the incubations using LC-MS/MS.
A stock solution (20 mM) of each proprietary compound in DMSO was prepared and store at −20° C. until needed. A working stock solution (0.2 mM) was prepared for each proprietary compound by adding an aliquot of the stock solution (10 μL) to acetonitrile (990 μL).
An aliquot of the HLM solution was removed from the −80° C. freezer and placed on ice. Tris Buffer (50 mM, pH 7.4) containing MgCl2 (hexahydrate, 5 mM) was pre-incubated in a 37° C. water bath. A set of Eppendorf microfuge tubes (1.5 mL) was appropriately labeled. To each tube was added Tris buffer with or without the NADPH generating system. An aliquot of pooled HLMs was added to all the incubations except those that were the buffer control.
Tubes were preincubated for 5 min in a shaking incubator bath (37° C., 900 rpm) and the reaction was initiated by adding an aliquot of the proprietary working solution (5 μL). The additions were timed carefully in order to coordinate the sample collections below. A small aliquot (50 μL) was removed at […] and delivered to the respective tubes containing dextrorphan (100 μL of 0.5 μg/mL solution) in dissolved in methanol or acetonitrile. The samples were centrifuged at 14000 g for 15 minutes at 4° C. The supernatant was transferred to clean labeled HPLC injection vials and stored at −80° C. until analyzed. An aliquot of the supernatant […] was added to water (75 μL), mixed and injected onto the LC-MS/MS system for analysis.
“HLM t1/2” represents the observed half life of the compound under conditions that included NADPH, i.e., the CYP system was active. Comparison to the half life of the test article under (−)NADPH conditions, the enzyme predominant ly responsible for the metabolism of the test article. […] Where roughly equal metabolism is seen by each enzyme system, “mixed” is noted in the “Predominant enzyme” column.

Gal-4 hPPARβ/δ = target: T2, Gal-4 hPPARβ/δ (Homo sapiens, UniProt Q03181); test: Gal4-hPPARδ transient transfection reporter assay in Cos cells; type: cell-based; conditions: luciferase reporter, 24 hours with compound, scale 1-5, read-out: Gal-4 hPPAR β/δ EC50 (scaled number)
T2 construct: Plasmids pGal4-hPPARα, pGal4-hPPARγ, pGal4-hPPARδ and pG5-TK-pGL3 were constructed as previously described by Staels, Bart, et al., Nature 1998 Jun; 25
T2 sequence (Q03181 171-441 limits assumed): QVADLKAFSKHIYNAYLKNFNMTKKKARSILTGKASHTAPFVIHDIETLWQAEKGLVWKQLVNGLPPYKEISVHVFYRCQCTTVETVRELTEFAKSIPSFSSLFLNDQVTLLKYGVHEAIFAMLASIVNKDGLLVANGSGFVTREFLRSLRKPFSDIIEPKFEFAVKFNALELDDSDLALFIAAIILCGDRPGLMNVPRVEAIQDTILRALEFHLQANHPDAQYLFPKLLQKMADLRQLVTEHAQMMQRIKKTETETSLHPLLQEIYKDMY
Method in brief: as §1

SMILES | EC50 (Gal-4 hPPARγ) [nM] | HLMs Predominant Enzyme [1] | half-life [1] [min] | EC50 (Gal-4 hPPARβ/δ) [nM] | HLMs t1/2 (min) [1]
CCCCCCCCn1c(COC(=O)c2ccc(SC(C)(C)C(=O)O)cc2)nn(Cc2ccc(C)cc2)c1=O [Compound 161, 2-methyl-2-(4-(((1-(4-methylbenzyl)-4-octyl-5-oxo-4,5-dihydro-1H-1,2,4-triazol-3-yl)methoxy)carbonyl)phenylthio)propanoic acid] | 51 to 200 | Esterase | 12 | 51 to 200 | 
CCCn1c(COC(=O)c2ccc(OC(C)(C)C(=O)O)cc2)nn(Cc2ccc(C(C)(C)C)cc2)c1=O [Compound 150, 2-(4-(((1-(4-tert-butylbenzyl)-5-oxo-4-propyl-4,5-dihydro-1H-1,2,4-triazol-3-yl)methoxy)carbonyl)phenoxy)-2-methylpropanoic acid] | > 1000 |  |  | > 1000 | Stable
Cc1ccc(Cn2cc([C@@H](C)OC(=O)c3ccc(SC(C)(C)C(=O)O)cc3)nn2)cc1 [Compound 87, (R)-2-methyl-2-(4-((1-(1-(4-methylbenzyl)-1H-1,2,3-triazol-4-yl)ethoxy)carbonyl)phenylthio)propanoic acid] | > 1000 | Esterase | 128 | > 1000 | 
CCCCCCn1c(COC(=O)c2ccc(SC(C)(C)C(=O)O)cc2)nn(Cc2ccc(C(C)(C)C)cc2)c1=O [Compound 187, 2-(4-(((1-(4-tert-butylbenzyl)-4-hexyl-5-oxo-4,5-dihydro-1H-1,2,4-triazol-3-yl)methoxy)carbonyl)phenylthio)-2-methylpropanoic acid] | 51 to 200 | Mixed | 38 | > 1000 | 
CCCCCCCCn1c(COC(=O)c2ccc(OC(C)(C)C(=O)O)cc2)nn(Cc2ccc(C)cc2)c1=O [Compound 152, 2-methyl-2-(4-(((1-(4-methylbenzyl)-4-octyl-5-oxo-4,5-dihydro-1H-1,2,4-triazol-3-yl)methoxy)carbonyl)phenoxy)propanoic acid] | > 1000 | Esterase | 180 | > 1000 | 
CCCCCCn1c(COC(=O)c2ccc(OC(C)(C)C(=O)O)cc2)nn(Cc2ccc(C)cc2)c1=O [Compound 151, 2-(4-(((4-hexyl-1-(4-methylbenzyl)-5-oxo-4,5-dihydro-1H-1,2,4-triazol-3-yl)methoxy)carbonyl)phenoxy)-2-methylpropanoic acid] | > 1000 | Stable |  | > 1000 | Stable
Cc1ccc(Cn2cc(COC(=O)c3ccc(SC(C)(C)C(=O)O)cc3)cn2)cc1 [Compound 3, 2-methyl-2-(4-(((1-(4-methylbenzyl)-1H-pyrazol-4-yl)methoxy)carbonyl)phenylthio)propanoic acid] | > 1000 |  |  | > 1000 | Stable
CC(C)(Sc1ccc(C(=O)OCc2cn(Cc3ccc(C(F)(F)F)cc3)nn2)cc1)C(=O)O [Compound 67, 2-methyl-2-(4-(((1-(4-(trifluoromethyl)benzyl)-1H-1,2,3-triazol-4-yl)methoxy)carbonyl)phenylthio)propanoic acid] | > 1000 |  |  | > 1000 | Stable
CCCCCCn1c(COC(=O)c2ccc(SC(C)(C)C(=O)O)cc2)nn(Cc2ccc(C)cc2)c1=O [Compound 160, 2-(4-(((4-hexyl-1-(4-methylbenzyl)-5-oxo-4,5-dihydro-1H-1,2,4-triazol-3-yl)methoxy)carbonyl)phenylthio)-2-methylpropanoic acid] | 51 to 200 |  |  | > 1000 | Stable
CCCCCCCn1c(COC(=O)c2ccc(OC(C)(C)C(=O)O)cc2)nn(Cc2ccc(C(C)(C)C)cc2)c1=O [Compound 190, 2-(4-(((1-(4-tert-butylbenzyl)-4-heptyl-5-oxo-4,5-dihydro-1H-1,2,4-triazol-3-yl)methoxy)carbonyl)phenoxy)-2-methylpropanoic acid] | > 1000 | CYP | 36 | > 1000 | 
CCCCCCCCn1c(COC(=O)c2ccc(OC(C)(C)C(=O)O)c(OC)c2)nn(Cc2ccc(C)cc2)c1=O [Compound 186, 2-(2-methoxy-4-(((1-(4-methylbenzyl)-4-octyl-5-oxo-4,5-dihydro-1H-1,2,4-triazol-3-yl)methoxy)carbonyl)phenoxy)-2-methylpropanoic acid] | 51 to 200 | CYP | 42 | > 1000 | 
CCCc1nn(Cc2ccc(C(F)(F)F)cc2)cc1COC(=O)c1ccc(SC(C)(C)C(=O)O)cc1 [Compound 12, 2-methyl-2-(4-(((3-propyl-1-(4-(trifluoromethyl)benzyl)-1H-pyrazol-4-yl)methoxy)carbonyl)phenylthio)propanoic acid] | > 1000 | Esterase | 60 | > 1000 | 
CCCCCCn1c(COC(=O)c2ccc(OC(C)(C)C(=O)O)cc2)nn(Cc2ccc(C(C)(C)C)cc2)c1=O [Compound 188, 2-(4-(((1-(4-tert-butylbenzyl)-4-hexyl-5-oxo-4,5-dihydro-1H-1,2,4-triazol-3-yl)methoxy)carbonyl)phenoxy)-2-methylpropanoic acid] | > 1000 | CYP | > 90 | > 1000 | 
Cc1ccc(Cn2cc(COC(=O)c3ccc(SC(C)(C)C(=O)O)cc3)nn2)cc1 [Compound 60, 2-methyl-2-(4-(((1-(4-methylbenzyl)-1H-1,2,3-triazol-4-yl)methoxy)carbonyl)phenylthio)propanoic acid] | > 1000 | Esterase | 90 | > 1000 | 
CCCCCCCn1c(COC(=O)c2ccc(SC(C)(C)C(=O)O)cc2)nn(Cc2ccc(C)cc2)c1=O [Compound 191, 2-(4-(((4-heptyl-1-(4-methylbenzyl)-5-oxo-4,5-dihydro-1H-1,2,4-triazol-3-yl)methoxy)carbonyl)phenylthio)-2-methylpropanoic acid] | 51 to 200 | Esterase | 15 | > 1000 | 
CCCn1c(COC(=O)c2ccc(SC(C)(C)C(=O)O)cc2)nn(Cc2ccc(C(C)(C)C)cc2)c1=O [Compound 159, 2-(4-(((1-(4-tert-butylbenzyl)-5-oxo-4-propyl-4,5-dihydro-1H-1,2,4-triazol-3-yl)methoxy)carbonyl)phenylthio)-2-methylpropanoic acid] | > 1000 |  |  | > 1000 | Stable
CCCCCCCn1c(COC(=O)c2ccc(OC(C)(C)C(=O)O)cc2)nn(Cc2ccc(C)cc2)c1=O [Compound 192, 2-(4-(((4-heptyl-1-(4-methylbenzyl)-5-oxo-4,5-dihydro-1H-1,2,4-triazol-3-yl)methoxy)carbonyl)phenoxy)-2-methylpropanoic acid] | > 1000 | Mixed | 33 | > 1000 | 
